According to patent publication US20030130264A1 (priority 2001, published 2003):

System: recombinant human cytomegalovirus (HCMV)
Test: microbe, parasite or virus in culture
Format: cell-based
Conditions: Human betaherpesvirus 5, HFF
Text: For the assessment of activity against human CMV, a method was used which is similar to that described in Kohler, et al. (1994) J. Virol. 68:6589-6597. Briefly, a recombinant human cytomegalovirus (HCMV) was made containing a marker gene (luciferase) under the control of the promoter for the late 28 kDa viral structural phosphoprotein pp28. Human foreskin fibroblast (HFF) cells were infected with the recombinant HCMV virus (moi (multiplicity of infection) 5), placed into 96-well plates, and cultured under standard cell-culture conditions. […] The level of luciferase expression was measured 24 h after treatment with the test compounds. […] As an additional control, the cytotoxicity of test compounds on untreated HFF cells was also evaluated in cultured cell growth experiments.

`CCc1nccn1-c1nc(NC2CCc3c(F)cc(F)cc32)nc(C)c1[N+](=O)[O-]` (centres unmarked) [2-(4,6-difluoro-1-indanamino)-4-(2-ethylimidazolyl)-6-methyl-5-nitropyrimidine] and `Cc1nc(NC2CCc3c(F)cc(F)cc32)nc(-n2ccnc2C)c1[N+](=O)[O-]` (centres unmarked) [2-(4,6-difluoro-1-indanamino)-4-(2-methylimidazolyl)-6-methyl-5-nitropyrimidine] fall in the same range of IC50: 100 to 500 nM for the first, 100 to 500 nM for the second.

`CCCOc1nc(C)c([N+](=O)[O-])c(-n2ccnc2C)n1` [x, 2-(propyloxy)-4-(2-methylimidazol-1yl)-6-methyl-5-nitropyrimidine] and `CCN(CC)c1nc(C)c([N+](=O)[O-])c(-n2ccnc2C)n1` [k] cannot be ordered by IC50: over 500 nM for the first, 1000 nM for the second.

Compared with `Cc1cn(-c2nc(N(C)c3ccccc3)nc(C)c2[N+](=O)[O-])cn1` [t], `CCc1nc(N(C)c2ccccc2)nc(-n2ccnc2C)c1[N+](=O)[O-]` [c] is 100-fold lower in IC50: 10000 nM for the first, 100 nM for the second. The second is the more potent here.

First: Cc1nc(NCc2ccc(C(F)(F)F)cc2)nc(-n2ccnc2C)c1[N+](=O)[O-] [2-(4-trifluoromethylbenzylamino)-4-(2-methylimidazol-1-yl)-6-methyl-5-nitropyrimidine]
Second: Cc1nc(NC2Cc3ccccc3C2)nc(-n2ccnc2C)c1[N+](=O)[O-] [2-(2-indanamino)-4-(2-methylimidazoyl)-6-methyl-5-nitropyrimidine]
The IC50 of the first is lower: 100 to 500 nM for the first, over 500 nM for the second. The first is the more potent here.

Going from `Cc1nc(-n2ccnc2C)nc(N(C)Cc2ccccc2)c1[N+](=O)[O-]` [f] to `CCCCN(Cc1ccccc1)c1nc(C)c([N+](=O)[O-])c(-n2ccnc2C)n1` [Compound m], the IC50 falls from 6000 nM to 2000 nM (3-fold).

Going from `Cc1nc(N(C)c2ccc(Cl)cc2)nc(-n2ccnc2C)c1[N+](=O)[O-]` [g] to `Cc1nccn1-c1nc(N(C)c2ccccc2)nc(C(C)C)c1[N+](=O)[O-]` [h], the IC50 falls from 800 nM to 300 nM (2.7-fold).

First: Cc1nc(N(Cc2ccccc2)Cc2ccccc2)nc(-n2ccnc2C)c1[N+](=O)[O-] [Compound o]
Second: CCCCN(CC1CC1)c1nc(C)c([N+](=O)[O-])c(-n2ccnc2C)n1 [Compound q]
The IC50 of the first is 1.5-fold lower: 2000 nM for the first, 3000 nM for the second.

`Cc1nc(N2CCC(C)CC2)nc(-n2ccnc2C)c1[N+](=O)[O-]` [Compound p] and `Cc1nc(NC2CCc3c(F)cc(F)cc32)nc(-n2ccnc2)c1[N+](=O)[O-]` (centres unmarked) [2-(4,6-difluoro-1-indanamino)-4-imidazolyl-6-methyl-5-nitropyrimidine] cannot be ordered by IC50: 300 nM for the first, 100 to 500 nM for the second.

`CCC(Nc1nc(C)c([N+](=O)[O-])c(-n2ccnc2)n1)c1ccccc1` (centres unmarked) [2-(1-phenyl-1-propylamino)-4-(imidazol-1-yl)-6-methyl-5-nitropyrimidine] and `Cc1nc(NC2Cc3ccccc3C2)nc(-n2ccnc2)c1[N+](=O)[O-]` [2-(2-indanamino)-4-imidazolyl-6-methyl-5-nitropyrimidine] cannot be ordered by IC50: over 500 nM for the first, over 500 nM for the second.

System: not given
Test: not given
Conditions: not given

First: Cc1nc(NC2Cc3ccccc3C2)nc(-n2ccnc2C)c1[N+](=O)[O-].Cl
Second: CC[C@H]1CCCCC1Nc1nc(C)c([N+](=O)[O-])c(-n2ccnc2)n1 (some centres unmarked)
The melting point of the first is higher: 184 to 185 °C for the first, 123 to 124 °C for the second.
